In PMC6270905, “Anti-Obesity Effects of Hispidin and Alpinia zerumbet Bioactives in 3T3-L1 Adipocytes” (Molecules, 2014):
Read-outs that look alike come from different tables or passages of the source.

Target: T1, pancreatic lipase (Sus scrofa, UniProt P00591)
T1 construct: gene PNLIP
T1 sequence (P00591 1-450): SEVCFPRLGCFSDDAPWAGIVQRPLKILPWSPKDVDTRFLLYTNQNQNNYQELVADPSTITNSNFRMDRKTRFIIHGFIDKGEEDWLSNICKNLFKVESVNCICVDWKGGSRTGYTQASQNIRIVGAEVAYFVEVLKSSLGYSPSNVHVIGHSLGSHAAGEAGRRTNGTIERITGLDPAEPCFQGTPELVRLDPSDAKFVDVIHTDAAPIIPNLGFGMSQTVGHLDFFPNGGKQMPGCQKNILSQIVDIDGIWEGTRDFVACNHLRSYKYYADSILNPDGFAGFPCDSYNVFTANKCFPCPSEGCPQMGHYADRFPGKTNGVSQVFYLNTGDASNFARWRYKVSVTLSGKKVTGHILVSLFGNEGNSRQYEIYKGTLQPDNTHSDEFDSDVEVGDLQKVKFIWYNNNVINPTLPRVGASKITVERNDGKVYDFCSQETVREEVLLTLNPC
Experiment: p-nitrophenyl butyrate hydrolysis by porcine pancreatic lipase (type II), absorbance at […] nm
Assay type: biochemical

| IC50 (read-out: IC50 (converted)) [µM] | SMILES | IC50 [µM] |
| --- | --- | --- |
|  | COc1cc(CCc2ccccc2)oc(=O)c1 [DDK, dihydro-5,6-dehydrokawain] | 36.5 |
| 326 | COc1cc(/C=C/c2ccccc2)oc(=O)c1 [DK, 5,6-dehydrokawain] |  |
| 76.4 | O=c1cc(O)cc(/C=C/c2ccc(O)c(O)c2)o1 [hispidin, 6-(3,4-dihydroxylstyryl)-4-hydroxy-2-pyrone] |  |
